From US10906904B2, “ADO-resistant cysteamine analogs and uses thereof” (HORIZON ORPHAN LLC, priority 2015, dated 2021)
Like-named read-outs stand apart in the source and are kept apart here.

What was measured:
[1] = Dimethyl sulfide (DMS) detection in rat whole blood following oral compound administration; type: in vivo; details: rat, in vivo, po, 150 mg/kg
Method: Male Sprague Dawley (SD) rats (200-250 g) were housed in cages under a 12 hour light/dark cycle with free access to food and water. Temperature and humidity were controlled according to UK Home Office regulations. For oral (po) administration, test compounds were formulated in water at a concentration of 30 mg/mL, to provide a dose of 150 mg/kg when administered orally in a 5 mL/kg dosing volume. Following compound or water (vehicle) administration to rats (n=15 per compound), terminal blood samples (>5 mL) were taken by cardiac puncture under CO2 at defined time-points post oral dosing (pre-dose, 0.25 hour, 0.5 hour, 1 hour and 2 hour). Blood was placed in sealed heparinized Eppendorf tubes on wet ice and stored at 4° C. prior to analyzing DMS levels by gas chromatography (GC).
For each sample of rat blood, 1 mL was added to an evacuated 20 mL GC-Headspace vial containing tetrahydrofuran (THF) internal standard. Headspace vials were sealed with a crimp cap and septum (to prevent the vaporization of volatile sulfur compounds into the open air) and thoroughly vortex mixed. All samples were processed using gas chromatography to measure DMS levels. In short, sulfur containing compounds were thermally liberated into the gas carrier stream and injected (1 μL) into the gas chromatography column (30 m×0.32 mm DB-624 1.8 μm). Under these conditions, the retention time for dimethyl sulfide (DMS) and THF internal standard were approximately 1.83 minutes and 3.82 minutes respectively.
For each analyzed blood sample, the ratio of DMS peak area to THF peak area was calculated. For the DMS calibration curve and assay linearity checks, this ratio was graphically plotted against the concentration of reference DMS standards (blank, 60 nM, 180 nM, 360 nM, 600 nM, 1200 nM, 1800 nM and 3000 nM). The concentration of DMS in each blood sample was calculated from the equation produced by this plot by linear regression analysis. […].

Cystine reactivity assay [2] = assay: Cystine reactivity assay; set-up: Cystine Reactivity: unit not given here; details: for Cystine Reactivity Assay (30° C.) (%) Mean Value: percentage of 3 mM cysteamine
Method: Cystine reactivity was assessed by incubating 3 mM test compound with 100 nM BODIPY® FL L-Cystine (Life Tech.) at 30° C., pH 7.4 in phosphate buffer. […] Compound cystine reactivity was expressed as a percentage of that of 3 mM cysteamine.
Under resting conditions, the inherent fluorescence of BODIPY® FL L-cystine was very low due to the spatial proximity of the two BODIPY molecules causing quenching. Under chemical reaction (disruption of the S—S bond), the spatial distance was increased, the quenching lost, and measured fluorescence increased. Time (minutes) vs. fluorescence (relative fluorescence units—RFU) was plotted and linear regression analysis was performed to generate a slope value corresponding to the reaction rate in RFU/min and an R2 value.

[3] = tested on: cystinotic human fibroblasts; assay: Cystine depletion assay; type: cell-based; details: for Emax: Homo sapiens, Fibroblast, 1 h
Method: The ability of test compounds to deplete cystine from cystinotic human fibroblasts (Coriell) was determined by incubating compounds with cells for 60 min at 37° C., 95% (v/v) air/5% (v/v) CO2 in Minimal Essential Media Eagle. Treated cell samples were subsequently harvested, then homogenized to ensure plasma and lysosomal membrane disruption. Protein was removed by acid precipitation and cystine in the supernatant measured using LC-MS/MS and HILIC chromatography. Protein levels were determined and cystine levels reported as nM per mg/ml protein. Cystine levels after test compound treatment were expressed as a percentage of that of untreated control cells.
Compounds were assayed at a concentration of 50 μM or 100 μM according to the general methods described above.
Cystine depletion levels for the compounds are expressed in Table 4 as a percent relative to the cystine depletion achieved by cysteamine (c.f. cysteamine 100%) at a similar concentration.
Cystine depletion levels for each of the compounds in Table 5 are expressed as a percent relative to the cystine depletion achieved by cysteamine (c.f. cysteamine 100%) at a similar concentration.

St-HdhQ^111/111 cells = assay: Glutamate-induced neuronal excitotoxicity assay; type: cell-based; details: 6 mM L-glutamate 24 hours, % of effect of 100 μM cysteamine; for viability at 10 µM / viability at 100 µM: STHdhQ111; for viability at 10 µM: read-out: HdhQ^111/111 cell % survival (mean ± STD) Test Conc. 10 μM; for viability at 100 µM: read-out: HdhQ^111/111 cell % survival (mean ± STD) Test Conc. 100 μM
Method: The ability of test compounds to inhibit glutamate-induced excitotoxicity (neuroprotection) in St-HdhQ^111/111 cells was determined by incubating compounds with cells for 60 min at 33° C., 95% (v:v) air/5% (v:v) CO2 in Dulbecco's Modified Eagle Media. Following this, excitotoxicity was induced by the addition of 6 mM L-glutamate for 24 hours. Cell viability was assessed by measuring ATP levels using a luminescent-based CellTitre Glo assay (Promega). Compound neuroprotection (% cell survival) was expressed as a % of the effect recorded with 100 μM cysteamine (denoted as 100% cell survival).

human recombinant ADO = target: T1, human recombinant ADO (Homo sapiens, UniProt Q96SZ5); type: in vitro ADME; details: for ADO Metabolism Assay (%) Mean Value: human, 15 mM
T1 sequence (Q96SZ5 1-270): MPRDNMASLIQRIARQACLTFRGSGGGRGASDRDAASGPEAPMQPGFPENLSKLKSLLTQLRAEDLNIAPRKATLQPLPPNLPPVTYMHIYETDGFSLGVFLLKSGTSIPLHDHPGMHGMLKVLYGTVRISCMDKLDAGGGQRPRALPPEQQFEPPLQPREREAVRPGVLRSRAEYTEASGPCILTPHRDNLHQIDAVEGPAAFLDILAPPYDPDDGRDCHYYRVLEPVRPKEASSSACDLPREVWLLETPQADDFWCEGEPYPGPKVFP
Method: The rate of ADO metabolism was determined by incubating 15 mM test compound with 60 μg/ml human recombinant ADO and 20 nM MitoXpress® O2-sensitive fluorescent probe (Luxcel) at 37° C. in assay buffer/salt in a sealed assay chamber. The initial rate of fluorescence (excitation λ380 nm and emission λ650 nm) increase was used to measure ADO-dependent oxygen depletion activity. The ability of ADO to metabolize compounds and concomitantly consume oxygen was expressed relative to that of 15 mM cysteamine.

Cystine reactivity assay [4] = details: Table 4
[5] = tested on: cryopreserved rat hepatocytes; assay: Rat hepatocyte stability assay
Method: Rat hepatocytes were used to model in vivo hepatic clearance of the compounds by the ADO enzyme. Briefly, a Hepatocyte Stability Assay was carried out using cryopreserved rat hepatocytes.

[6] = Rodent pharmacokinetic assay (rat); type: in vivo; details: 2 and 10 mg free base equivalents per kg, intravenous and oral gavage
Method: Pharmacokinetic parameters of a test compound in a rodent species (mouse and/or rat) were determined by administering a test compound at 2 and 10 mg free base equivalents per kg via the intravenous and oral gavage route to groups of three animals per route.
Blood samples were taken at various times after administration, plasma prepared, and submitted to analysis for parent drug using a qualified LC-MS-MS assay. Pharmacokinetics parameters derived from the plasma analytical data were determined using non-compartmental analysis.

[7] = Table 4, relative to cystine depletion by cysteamine (100%) at a similar concentration
[8] = Table 4, relative to cystine depletion by cysteamine (100%) at a similar concentration, read-out: Cystine Depletion (%)
[9] = Table 5, relative to cystine depletion by cysteamine (100%) at a similar concentration, read-out: Cystine Depletion (%) Mean Value

SMILES | Mean DMS levels (nM) ± STD, Time 1 hr ([1]; male, Sprague Dawley, 1 h) [nM] | Mean DMS levels (nM) ± STD, Time 2 hr ([1]; male, Sprague Dawley, 2 h) [nM] | ADO Metabolism Assay (%) Mean Value (human recombinant ADO) [%] | Cystine Reactivity Assay (30° C.) (%) Mean Value (Cystine reactivity assay [2]; Table 5) [%] | Cystine Reactivity Assay (30° C.) (%) Mean Value (Cystine reactivity assay [2]; Table 4) | Emax [3, 8] [%] | viability at 10 µM (St-HdhQ^111/111 cells; 10 μM) [%] | viability at 100 µM (St-HdhQ^111/111 cells; 100 μM) [%] | Cystine Reactivity Assay (RT) (RFU) Mean Value (Cystine reactivity assay [4]) [RFU] | other results
SC1CNC1 [Compound 41446] |  |  |  | >90 |  |  |  |  |  | Mean DMS levels (nM) ± STD, Time 1 hr [1]: <60 nM; Mean DMS levels (nM) ± STD, Time 2 hr [1]: <60 nM; Cystine Depletion (%) [3, 7]: 82%; Cystine Depletion (%) Mean Value ([3]; Table 5, relative to cystine depletion by cysteamine (100%) at a similar concentration): 82%; HdhQ^111/111 cell % survival (mean ± STD) Test Conc. 10 μM (St-HdhQ^111/111 cells; 10 μM): 6 ± 9%; HdhQ^111/111 cell % survival (mean ± STD) Test Conc. 100 μM (St-HdhQ^111/111 cells; 100 μM): 101 ± 11%
NCCCS [Compound 17329] |  |  |  |  |  |  |  |  | <4000 | Cystine Depletion (%) [3, 7]: 36%
CC(N)CS (stereo not drawn) [Compound 3c] |  |  |  |  |  |  |  |  |  | Rat Hepatocytes CLint [5]: 29500 µL/min/mg; Cystine Reactivity (Cystine reactivity assay [2]; Tables 1-3): 7733; reactivity with cystine compared to cysteamine (in words) (Cystine reactivity assay [2]; text summary of Tables 1-3): increased reactivity with cystine compared to cysteamine; cystine depletion levels (in words) ([3]; compared to cysteamine): similar; Cystine depletion ([3]; compound at 50 μM or 100 μM, Tables 1-3): 97%; metabolism by ADO compared to cysteamine (in words) (human recombinant ADO): significantly reduced metabolism by ADO compared to cysteamine; Rat PK Bioavailability [6]: 23%; Rat PK-Half life [6]: 48 min
CC(=O)NCCS [Compound 17287] |  |  | <25 |  |  |  |  |  | <4000 | 

Further lines, with some results ahead:

Mean DMS levels (nM) ± STD, Time 1 hr ([1]; male, Sprague Dawley, 1 h) [nM] | Mean DMS levels (nM) ± STD, Time 2 hr ([1]; male, Sprague Dawley, 2 h) [nM] | ADO Metabolism Assay (%) Mean Value (human recombinant ADO) [%] | SMILES | Cystine Reactivity Assay (30° C.) (%) Mean Value (Cystine reactivity assay [2]; Table 5) [%] | Cystine Reactivity Assay (30° C.) (%) Mean Value (Cystine reactivity assay [2]; Table 4) | Emax [3, 8] [%] | viability at 10 µM (St-HdhQ^111/111 cells; 10 μM) [%] | viability at 100 µM (St-HdhQ^111/111 cells; 100 μM) [%] | Cystine Reactivity Assay (RT) (RFU) Mean Value (Cystine reactivity assay [4]) [RFU] | other results
<60 | <60 | <25 | CC1(S)CCNCC1 [Compound 42341] | <50 | <50% | 81 | 1 ± 10 | 55 ± 21 |  | Mean DMS levels (nM) ± STD, Time 0.5 hr ([1]; male, Sprague Dawley, 0.5 h): <60 nM; Emax [3, 9]: 83%
<60 | <60 | <25 | SC1CCNCC1 [Compound 41188] |  | 59-90% | 87 | 20 ± 6 | 105 ± 11 |  | 
 |  | <25 | SCCN1CCOCC1 [Compound 17328] |  |  | 13 |  |  | <4000 | 
<60 | <60 | <25 | SC[C@@H]1CCCN1 (stereo in doubt) [Compound 42210] | >90 | >90% | 87 | 7 ± 6 | 105 ± 8 |  | Emax [3, 9]: 89%
